Numbers after ± are expanded uncertainties.
Experiment: molar enthalpy of vaporization or sublimation
Conditions: 298.15 K; Liquid; calvet microcalorimetry

molar enthalpy [kcal/mol] | Structure (SMILES)
12.9 ± 0.717 | C1CSCCN1 [thiomorpholine]
11.1 ± 0.191 | C1COCCN1 [tetrahydro-1,4-oxazine]
